Measurements taken from patent US11702403B2, “EAAT2 activators and methods of using thereof” (OHIO STATE INNOVATION FOUNDATION, priority 2018, dated 2023).
Where a name gives a salt, the structure may show the parent alone.

Experiments:
[1] = test system: CA3-CA1 LTP in the hippocampus; experiment: Long-term potentiation (LTP) in acute hippocampal slices of treated wild-type mice; assay type: in vivo; conditions: 0.033, 0.33, and 3.3 mg/kg for seven days, vs vehicle
Method: Mice were treated with compound at 40 mg/kg (or as depicted) and forebrains were harvested for the gliosome preparation 24 hr (or as described) post-treatment. FIG. 2A: Western blots show dose-dependent increase of EAAT2 protein levels. FIG. 2B: Time-dependent fold increase in EAAT2 protein expression in response to compound treatment at 4 hours (1.54±0.13) and 24 hours (1.98±0.19) post-treatment. Quantification of EAAT2 expression time course (normalized to flotilin; n=4/group). Data represented as mean SEM and analyzed using one-way ANOVA with Tukey post-hoc test. *p<0.05, **p<0.01. FIG. 2C: Compound treatment enhances CA3-CA1 LTP in the hippocampus. Mice were treated with vehicle or compound for seven days and acute hippocampal sections were collected for LTP recordings. […] Data represented as mean SEM analyzed using one-way ANOVA with Bonferroni post-hoc tests. […]
At 24 hours post-treatment, mice were euthanized and forbrains were harvested. […] Acute hippocampal slices were then collected and assessed for changes in long-term potentiation (LTP).
Wild-type C57BL/6 mice (2-3 months old) were treated orally with compound 101 at 0.01, 0.033, 0.1, 0.33, 1, 3.33, 10, 20, 40, 60, and 100 mg/kg/day (voluntary ingestion of compound in honey) for seven or 28 days. […] Mice were then euthanized and acute hippocampal slices were collected and assessed for changes in long-term potentiation (LTP).

EAAT2 = EAAT2 protein levels in brains of wild-type C57BL/6 mice by Western blot; assay type: in vivo; conditions: oral 0.01-100 mg/kg/day for seven or 28 days
Method: Mice then were euthanized and brains were harvested for examining EAAT2 protein levels by Western blot analysis.
Wild-type C57BL/6 mice (2-3 months old) were treated orally with compound 101 at 0.01, 0.033, 0.1, 0.33, 1, 3.33, 10, 20, 40, 60, and 100 mg/kg/day (voluntary ingestion of compound in honey) for seven or 28 days. Mice then were euthanized and brains were harvested for examining EAAT2 protein levels by Western blot analysis. […] To determine the functional consequences of the increased EAAT2 to the synaptic plasticity, wild-type mice were treated with vehicle or compound 101 at 0.033, 0.33, and 3.3 mg/kg for seven days. Mice were then euthanized and acute hippocampal slices were collected and assessed for changes in long-term potentiation (LTP).

human EAAT2 = experiment: EAAT2 protein levels in PA-EAAT2 cells by Western blot; assay type: cell-based; conditions: PA-EAAT2 cells, 24 hr
Method: Compounds were evaluated in PA-EAAT2 cells, a primary astrocyte stably expressing human EAAT2 mRNAs (Kong et al., J Clin Invest. 2014:1255-67). Cells were treated with compound at 0.0375, 0.075, 0.15, 0.3, 0.6, 1.25, 2.5, 5, 10 μM for 24 hr and then harvested for measuring EAAT2 protein levels by Western blot analysis.

CNCCn1nc(-c2ccccn2)ccc1=O [Compound 101, 2-(2-(Methylamino)ethyl)-6-(pyridin-2-yl)pyridazin-3(2H)-one hydrochloride]
CA1 field potential responses to stimulation of CA3 afferents (LTP) [1]: significantly increased responses | EAAT2 protein levels in mouse brains (EAAT2): dose-dependently increased | Fold increase for EAAT2 at indicated concentration (maximum activity) (human EAAT2; EAAT2 protein relative to DMSO): 2.6 ± 0.2 fold | concentration that reaches maximum activity (human EAAT2; tested 0.0375-10 μM): 0.3 µM
